Measured values reported in PubChem BioAssay (NCI).
Where “and” joins values, the source holds several entries; their conditions need not be identical. Equal values may be shown once.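 Where inhibition never reached the appropriate level, the endpoint shown equals the highest concentration tested. Otherwise, values were interpolated linearly from a five-concentration, 48-hour dose response in 96-well plates. GI50 marks 50% less growth. TGI: total growth inhibition.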

Columns and labels:
Assay in all cases: NCI anticancer screen, dose series, 48 h
RXF 393 renal = system: RXF 393 renal
HCC-2998 colon = system: HCC-2998 colon
NCI-H460 lung = system: NCI-H460 lung
A498 renal = system: A498 renal
OVCAR-3 ovarian = system: OVCAR-3 ovarian
ACHN renal = system: ACHN renal
SF-539 CNS = system: SF-539 CNS
SNB-75 CNS = system: SNB-75 CNS
SW-620 colon = system: SW-620 colon
OVCAR-4 ovarian = system: OVCAR-4 ovarian

Compound	GI50 (RXF 393 renal)	TGI (RXF 393 renal)	GI50 (HCC-2998 colon) [µM]	TGI (HCC-2998 colon) [µM]	GI50 (NCI-H460 lung)	TGI (NCI-H460 lung)	GI50 (A498 renal)	TGI (A498 renal)	GI50 (OVCAR-3 ovarian)	TGI (OVCAR-3 ovarian)	GI50 (ACHN renal)	TGI (ACHN renal)	GI50 (SF-539 CNS)	TGI (SF-539 CNS)	GI50 (SNB-75 CNS) [µM]	TGI (SNB-75 CNS) [µM]	GI50 (SW-620 colon)	TGI (SW-620 colon)	GI50 (OVCAR-4 ovarian) [µM]	TGI (OVCAR-4 ovarian) [µM]
Cc1cc(N2CCCC2)nc(NCc2cc(Nc3ccnc4cc(Cl)ccc34)ccc2F)n1	1.43 µM	2.87 µM	1.13	2.45	1.23 µM	2.86 µM	1040 nM	2.54 µM	1.57 µM	3.06 µM	1.53 µM	3.06 µM	1550 nM	3.11 µM						
OCCNCCCOc1ccc2ncnc(Nc3ccc(Oc4cccc(C(F)(F)F)c4)c(Cl)c3)c2c1			1.64	3.1	1.73 µM	3.31 µM	1720 nM	5.29 µM	1.5 µM	2.92 µM	1.09 µM	2.28 µM	1640 nM	3.07 µM	1.48	2.86	1.76 µM	3.38 µM		
C[n+]1c(-c2ccc(/C=N/NC(=O)c3ccc(C(=O)N/N=C/c4ccc(-c5cn6ccccc6[n+]5C)cc4)cc3)cc2)cn2ccccc21	174 µM	> 87.2 µM and 312 µM	577	> 1000	> 1000 µM	> 1000 µM	172000 nM	70.8 µM and 309 µM	> 1000 µM	> 1000 µM	752 µM	> 1000 µM	206000 nM	349 µM			> 1000 µM	> 1000 µM	623	> 1000
O=C(O)CCc1c2ccc(=O)c(O)c-2oc2c(O)c(O)ccc12		> 100 µM		> 100		> 100 µM		> 100 µM		> 100 µM		> 100 µM				> 100		59.9 µM		> 100
CN[C@@H](C)[C@H](N)c1ccccc1		> 100 µM		> 100		> 100 µM		> 100 µM		> 100 µM		> 100 µM		> 100 µM		> 100		> 100 µM		
Cc1ccn2c(CCc3nnc4cc(C)ccn34)nnc2c1		> 100 µM				> 100 µM		> 100 µM		> 100 µM		> 100 µM		> 100 µM		> 100		> 100 µM		> 100
C=C1C2CC(OC(C)=O)C3(C)C(c4ccoc4)OC(=O)[C@@H](O)[C@]13OC1C[C@H](OC(C)=O)C(C)(C)[C@H](CC(=O)OC)[C@]12C (stereo partly specified)				> 100		> 100 µM		> 100 µM		> 100 µM		> 100 µM		> 100 µM		> 100		> 100 µM		> 100
CC(=O)C1=C(C)N(C)C2(O)C=CC(=O)C3=C(O)c4ccccc4C(=O)C312 (stereo unspecified)			13.8	61.8	10.6 µM	42 µM	52.4 nM	15.2 µM			10.8 µM	28.8 µM	2760 nM	6.55 µM	19.9	43.8	4.41 µM	33.5 µM	17.1	34.2
O=S(=O)([O-])[O-].[Cl-].[NH2-].[NH2-].[NH2-].[NH2-].[Ru+3].c1ccncc1				> 100		> 100 µM		> 100 µM		> 100 µM		> 100 µM		> 100 µM		> 100		> 100 µM		> 100
O=S1(=O)CCCS(=O)(=O)C(c2ccccc2)=C1c1ccccc1				32.4		> 100 µM		> 100 µM		> 100 µM		> 100 µM		> 100 µM		> 100		> 100 µM		> 100
NC(N)=Nc1nc2ccc([N+](=O)[O-])cc2[nH]1		> 100 µM				> 100 µM		> 100 µM		> 100 µM		> 100 µM		> 100 µM		> 100		> 100 µM		> 100
COC1C(OC(=O)/C=C/C=C/C=C/C=C\C(=O)O)CCC2(CO2)C1C1(C)OC1CC=C(C)C (stereo unspecified)	> 200 µM	> 200 µM			> 200 µM	> 200 µM	> 200000 nM	> 200 µM	> 200 µM	> 200 µM	> 200 µM	> 200 µM	> 200000 nM	> 200 µM	> 200	> 200	> 200 µM	> 200 µM	> 200	> 200
COc1ccc(/C=c2/sc3n(c2=O)NC2(CCC(C)CC2)NN=3)cc1 (stereo unspecified)		> 100 µM		> 100		> 100 µM				> 100 µM		> 100 µM		> 100 µM		> 100		> 100 µM		> 100
O=C1Nc2ccccc2/C1=C\c1nc(C2CCN(S(=O)(=O)c3ccc(F)cc3)CC2)n2ccccc12			> 100	> 100	9.97 µM	> 100 µM	17100 nM	> 100 µM	2.72 µM	11.1 µM	4.07 µM	> 100 µM	1390 nM	3.07 µM			85.7 µM	> 100 µM		
CCCNC(=O)c1ccc(Cl)cc1Cl	> 100 µM	> 100 µM			> 100 µM	> 100 µM			> 100 µM	> 100 µM	> 100 µM	> 100 µM	> 100000 nM	> 100 µM	> 100	> 100	> 100 µM	> 100 µM	> 100	> 100
COc1ccc(/C(Cl)=C(\c2ccc(OCCN(C)C)cc2)c2ccc(OC(=O)C(C)(C)C)cc2)cc1		21.7 µM		29.2		28.7 µM				28.5 µM		29.5 µM		26.8 µM		21.9		28.6 µM		26.9
C=C(CC(=O)O)C(=O)O (tested in a mixture with another compound)	10.2 µg/mL	> 50 µg/mL			> 50 µg/mL	> 50 µg/mL	> 50 µg/mL	> 50 µg/mL	> 50 µg/mL	> 50 µg/mL	> 50 µg/mL	> 50 µg/mL	> 50 µg/mL	> 50 µg/mL			> 50 µg/mL	> 50 µg/mL		
COC(=O)N/N=C(/CCC(=O)Nc1ccc(C)c(C)c1)CC(=O)C(C)(C)C		> 100 µM		> 100		> 100 µM				> 100 µM		> 100 µM		> 100 µM		> 100		> 100 µM		> 100
